US20250171431A1, “HETEROCYCLIC INHIBITORS OF IGF-1R FOR TREATMENT OF DISEASE” (HORIZON THERAPEUTICS IRELAND DAC, priority 2023, published 2025)

Molecular target: IGF-1R (Homo sapiens (Human), UniProt P08069)
Assay: Example B-1: IGF-1R Assay (PC3 cells, IGF1 stimulation, AlphaLISA)
Type: cell-based
Details: 200 ng/mL IGF1 stimulation, read-out: Biological Activity against IGF-1R IC50
Outline: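 Readout is AlphaLISA signal from lysed PC3 cells, expressed as % inhibition versus vehicle and EC80 controls and banded by IC50. Before lysis, the cells were starved of serum for 2 h, exposed to 3× serially diluted compound for 2 h, and stimulated for 30 min with 200 ng/mL IGF1 (final).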

Sequence of IGF-1R (P08069 31-1367): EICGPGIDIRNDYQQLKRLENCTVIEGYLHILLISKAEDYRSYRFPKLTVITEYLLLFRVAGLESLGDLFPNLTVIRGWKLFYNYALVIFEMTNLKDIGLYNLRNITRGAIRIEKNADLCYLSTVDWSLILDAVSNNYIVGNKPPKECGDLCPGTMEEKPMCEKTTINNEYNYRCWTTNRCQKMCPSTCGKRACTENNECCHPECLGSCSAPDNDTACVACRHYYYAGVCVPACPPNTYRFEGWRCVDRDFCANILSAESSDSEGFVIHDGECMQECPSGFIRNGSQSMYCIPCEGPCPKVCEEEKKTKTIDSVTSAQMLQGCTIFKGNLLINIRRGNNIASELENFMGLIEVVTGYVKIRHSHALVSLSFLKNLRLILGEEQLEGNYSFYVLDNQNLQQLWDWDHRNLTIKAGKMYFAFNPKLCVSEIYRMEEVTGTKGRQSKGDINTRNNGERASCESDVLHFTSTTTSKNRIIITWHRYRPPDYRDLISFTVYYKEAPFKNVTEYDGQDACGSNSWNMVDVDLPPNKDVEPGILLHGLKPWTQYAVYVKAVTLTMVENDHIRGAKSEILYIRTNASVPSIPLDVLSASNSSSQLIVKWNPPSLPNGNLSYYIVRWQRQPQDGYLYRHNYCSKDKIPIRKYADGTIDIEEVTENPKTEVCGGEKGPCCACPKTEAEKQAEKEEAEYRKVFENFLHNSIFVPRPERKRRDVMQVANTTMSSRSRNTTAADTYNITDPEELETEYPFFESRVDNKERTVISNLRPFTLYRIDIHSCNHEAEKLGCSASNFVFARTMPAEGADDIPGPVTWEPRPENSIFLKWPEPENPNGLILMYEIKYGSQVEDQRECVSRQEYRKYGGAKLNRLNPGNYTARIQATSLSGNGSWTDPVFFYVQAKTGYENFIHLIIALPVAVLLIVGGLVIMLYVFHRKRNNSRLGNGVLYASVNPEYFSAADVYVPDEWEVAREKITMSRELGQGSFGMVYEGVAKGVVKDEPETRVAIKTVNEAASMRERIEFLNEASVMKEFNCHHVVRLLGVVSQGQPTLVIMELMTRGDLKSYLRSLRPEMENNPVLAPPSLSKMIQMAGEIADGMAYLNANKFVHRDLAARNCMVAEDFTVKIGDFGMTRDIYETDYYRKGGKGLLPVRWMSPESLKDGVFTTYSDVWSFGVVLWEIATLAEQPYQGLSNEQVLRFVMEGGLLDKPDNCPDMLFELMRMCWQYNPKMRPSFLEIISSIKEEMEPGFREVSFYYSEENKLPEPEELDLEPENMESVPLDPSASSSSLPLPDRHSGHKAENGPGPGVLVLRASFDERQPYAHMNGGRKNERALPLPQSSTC

| Compound | IC50 [nM] |
| --- | --- |
| COc1cc(Nc2nccc(Nc3cnc4cc(Cl)ccc4c3)n2)ccc1O[C@H]1C[C@@H](N(C)C)C1 [Compound 342, 4-(7-chloro-3-quinolylamino)-2-{3-methoxy-4-[(1s,3s)-3-(dimethylamino)cyclobutoxy]phenylamino}pyrimidine] | ≤ 500 |
| COc1cc(Nc2nccc(Nc3cnc4ccc(Cl)cc4c3)n2)ccc1O[C@H]1C[C@@H](N(C)C)C1 [Compound 343, 4-(6-chloro-3-quinolylamino)-2-{3-methoxy-4-[(1s,3s)-3-(dimethylamino)cyclobutoxy]phenylamino}pyrimidine] | ≤ 500 |
| COc1ccc2cc(Nc3ccnc(Nc4ccc(O[C@@H]5C[C@H]6COC[C@@H](C5)N6C)cc4)n3)cnc2c1 [Compound 345, 2-(p-{(1R,5S,7s)-9-methyl-3-oxa-9-azabicyclo[3.3.1]non-7-yloxy}phenylamino)-4-(7-methoxy-3-quinolylamino)pyrimidine] | 500 to 2000 |
| COc1ccc2cc(Nc3ccnc(Nc4ccc(O[C@H]5C[C@H]6COC[C@@H](C5)N6C)cc4)n3)cnc2c1 [Compound 346, 2-(p-{(1R,5S,7r)-9-methyl-3-oxa-9-azabicyclo[3.3.1]non-7-yloxy}phenylamino)-4-(7-methoxy-3-quinolylamino)pyrimidine] | 500 to 2000 |
| O=S1(=O)CCN([C@H]2C[C@H](Oc3ccc(Nc4nccc(Nc5cnc6ccc(Br)cc6c5)n4)cc3)C2)CC1 [Compound 347] | ≤ 500 |
| O=S1(=O)CCN([C@H]2C[C@H](Oc3ccc(Nc4nccc(Nc5cnc6c(c5)OCCO6)n4)cc3)C2)CC1 [Compound 348] | ≤ 500 |
| O=S1(=O)CCN([C@H]2C[C@H](Oc3ccc(Nc4nccc(Nc5cnc6c(Cl)cccc6c5)n4)cc3)C2)CC1 [Compound 349] | 500 to 2000 |
| O=S1(=O)CCN([C@H]2C[C@H](Oc3ccc(Nc4nccc(Nc5cnc6cc(Cl)ccc6c5)n4)cc3)C2)CC1 [Compound 350, 4-[(1r,3r)-3-{p-[4-(7-chloro-3-quinolylamino)-2-pyrimidinylamino]phenoxy}cyclobutyl]-1λ^6,4-thiazinane-1,1-dione] | 2000 to 10000 |
| O=S1(=O)CCN([C@H]2C[C@H](Oc3ccc(Nc4nccc(Nc5cnc6c(c5)C5CCC6C5)n4)cc3)C2)CC1 (some centres unmarked) [Compound 351, 4-[(1r,3r)-3-[p-(4-{3-azatricyclo[6.2.1.02,7]undeca-2(7),3,5-trien-5-ylamino}-2-pyrimidinylamino)phenoxy]cyclobutyl]-1λ^6,4-thiazinane-1,1-dione] | 500 to 2000 |
| COc1ccc2cc(Nc3ccnc(Nc4ccc(O[C@H]5C[C@@H](N6CCOCC6)C5)cc4)n3)cnc2c1 [Compound 352, 4-(7-methoxy-3-quinolylamino)-2-{p-[(1s,3s)-3-morpholinocyclobutoxy]phenylamino}pyrimidine] | 2000 to 10000 |
| COc1ccc2cc(Nc3ccnc(Nc4ccc(O[C@H]5C[C@H](N6CCS(=O)(=O)CC6)C5)cc4)n3)cnc2c1 [Compound 353] | 2000 to 10000 |
| COc1ccc2cc(Nc3ccnc(Nc4ccc(O[C@H]5C[C@H](N6CCCCC6)C5)cc4)n3)cnc2c1 [Compound 354, 4-(7-methoxy-3-quinolylamino)-2-{p-[(1r,3r)-3-piperidinocyclobutoxy]phenylamino}pyrimidine] | 2000 to 10000 |
| COc1ccc2cc(Nc3ccnc(Nc4ccc(O[C@H]5C[C@H](N(C)C)C5)cc4)n3)cnc2c1 [Compound 355, 4-(7-methoxy-3-quinolylamino)-2-{p-[(1r,3r)-3-(dimethylamino)cyclobutoxy]phenylamino}pyrimidine] | 500 to 2000 |
| COc1ccc2cc(Nc3ccnc(Nc4ccc(O[C@H]5C[C@H](N6CCOCC6)C5)cc4)n3)cnc2c1 [Compound 356, 4-(7-methoxy-3-quinolylamino)-2-{p-[(1r,3r)-3-morpholinocyclobutoxy]phenylamino}pyrimidine] | 500 to 2000 |
| COc1cc(Nc2nccc(Nc3cnc4c(Cl)cccc4c3)n2)ccc1O[C@H]1C[C@H](N(C)C)C1 [Compound 358, 4-(8-chloro-3-quinolylamino)-2-{3-methoxy-4-[(1r,3r)-3-(dimethylamino)cyclobutoxy]phenylamino}pyrimidine] | ≤ 500 |
| COc1cc(Nc2nccc(Nc3cnc4c(c3)OCCO4)n2)ccc1O[C@H]1C[C@H](N2CCS(=O)(=O)CC2)C1 [Compound 359, 4-[(1r,3r)-3-{4-[4-(2,3-dihydro-1,4-dioxa-5-aza-7-naphthylamino)-2-pyrimidinylamino]-2-methoxyphenoxy}cyclobutyl]-1λ^6,4-thiazinane-1,1-dione] | ≤ 500 |
| COc1cc(Nc2nccc(Nc3cnc4c(c3)CCCO4)n2)ccc1O[C@H]1C[C@H](N2CCOCC2)C1 [Compound 360, 4-(3,4-dihydro-2H-1-oxa-8-azanaphth-6-ylamino)-2-{3-methoxy-4-[(1r,3r)-3-morpholinocyclobutoxy]phenylamino}pyrimidine] | ≤ 500 |
| COc1cc(Nc2nccc(Nc3cnc4ccc(Cl)cc4c3)n2)ccc1O[C@H]1C[C@H](N2CCOCC2)C1 [Compound 361, 4-(6-chloro-3-quinolylamino)-2-{3-methoxy-4-[(1r,3r)-3-morpholinocyclobutoxy]phenylamino}pyrimidine] | ≤ 500 |

| Compound | IC50 [nM] |
| --- | --- |
| c1ccc2ncc(Nc3ccnc(Nc4ccc(O[C@H]5C[C@@H](N6CCCCC6)C5)cc4)n3)cc2c1 [Compound 363, 4-(3-quinolylamino)-2-{p-[(1s,3s)-3-piperidinocyclobutoxy]phenylamino}pyrimidine] | ≤ 500 |
| COc1cc(Nc2nccc(Nc3cnc4c(c3)CCCC4)n2)ccc1O[C@H]1C[C@@H](N(C)C)C1 [Compound 364, 2-{3-methoxy-4-[(1s,3s)-3-(dimethylamino)cyclobutoxy]phenylamino}-4-(5,6,7,8-tetrahydro-3-quinolylamino)pyrimidine] | ≤ 500 |
| COc1cc(Nc2nccc(Nc3cnc4c(c3)CCCO4)n2)ccc1O[C@H]1C[C@@H](N(C)C)C1 [Compound 365, 4-(3,4-dihydro-2H-1-oxa-8-azanaphth-6-ylamino)-2-{3-methoxy-4-[(1s,3s)-3-(dimethylamino)cyclobutoxy]phenylamino}pyrimidine] | ≤ 500 |
| COc1cc(Nc2nccc(Nc3cnc4c(c3)SCCC4)n2)ccc1O[C@H]1C[C@@H](N(C)C)C1 [Compound 366, 4-(3,4-dihydro-2H-1-thia-5-azanaphth-7-ylamino)-2-{3-methoxy-4-[(1s,3s)-3-(dimethylamino)cyclobutoxy]phenylamino}pyrimidine] | ≤ 500 |
| CN(C)[C@H]1C[C@@H](Oc2ccc(Nc3nccc(Nc4cnc5ccccc5c4)n3)cc2)C1 [Compound 367, 4-(3-quinolylamino)-2-{p-[(1s,3s)-3-(dimethylamino)cyclobutoxy]phenylamino}pyrimidine] | ≤ 500 |
| COc1cc(Nc2nccc(Nc3cnc4ccccc4c3)n2)ccc1O[C@H]1C[C@H](N(C)C)C1 [Compound 369, 2-{3-methoxy-4-[(1r,3r)-3-(dimethylamino)cyclobutoxy]phenylamino}-4-(3-quinolylamino)pyrimidine] | ≤ 500 |
| COc1cc(Nc2nccc(Nc3cnc4c(c3)CCCC43CCCC3)n2)ccc1OCCCN1CCCCC1 [Compound 370, 4-(6′,7′-dihydro-5′H-spiro[cyclopentane-1,8′-quinolin]-3′-ylamino)-2-[3-methoxy-4-(3-piperidinopropoxy)phenylamino] pyrimidine] | ≤ 500 |
| O=S1(=O)CCN(CCCOc2ccc(Nc3nccc(Nc4cnc5c(c4)C4CCC5C4)n3)cc2)CC1 (centres unmarked) [Compound 371, 4-[3-(p-{4-(3-azatricyclo[6.2.1.0^2,7]undeca-2,4,6-trien-5-ylamino)-2-pyrimidinylamino}phenoxy)propyl]-1λ^6,4-thiazinane-1,1-dione] | ≤ 500 |
| c1cc(Nc2cnc3c(c2)C2CCC3C2)nc(Nc2ccc(OCCCN3CCOCC3)cc2)n1 (centres unmarked) [Compound 372, 4-(3-azatricyclo[6.2.1.0^2,7]undeca-2,4,6-trien-5-ylamino)-2-[p-(3-morpholinopropoxy)phenylamino]pyrimidine] | ≤ 500 |
| c1cc(Nc2cnc3c(c2)C2CCC3CC2)nc(Nc2ccc(OCCCN3CCOCC3)cc2)n1 [Compound 373, 4-(3-azatricyclo[6.2.2.0^2,7]dodeca-2,4,6-trien-5-ylamino)-2-[p-(3-morpholinopropoxy)phenylamino] pyrimidine] | ≤ 500 |
| COc1cc(Nc2nccc(Nc3cnc4c(c3)CCCC4)n2)ccc1OCCCN1CCCCC1 [Compound 374, 2-[3-methoxy-4-(3-piperidinopropoxy)phenylamino]-4-(5,6,7,8-tetrahydro-3-quinolylamino)pyrimidine] | ≤ 500 |
| COc1cc(Nc2nccc(Nc3cnc4c(c3)CCCO4)n2)ccc1OCCCN1CCCCC1 [Compound 375, 4-(3,4-dihydro-2H-1-oxa-8-azanaphth-6-ylamino)-2-[3-methoxy-4-(3-piperidinopropoxy)phenylamino]pyrimidine] | ≤ 500 |
| COc1cc(Nc2nccc(Nc3ccc4c(c3)OCCO4)n2)ccc1OCCCN1CCCCC1 [Compound 376, 4-(2,3-dihydro-1,4-benzodioxin-6-ylamino)-2-[3-methoxy-4-(3-piperidinopropoxy)phenylamino]pyrimidine] | ≤ 500 |
| COc1cc(Nc2nccc(Nc3cnc4c(c3)CSCC4)n2)ccc1OCCCN1CCCCC1 [Compound 377, 4-(7,8-dihydro-5H-6-thia-1-azanaphth-3-ylamino)-2-[3-methoxy-4-(3-piperidinopropoxy)phenylamino]pyrimidine] | ≤ 500 |
| COc1cc(Nc2nccc(Nc3cnc4c(c3)SCCC4)n2)ccc1OCCCN1CCCCC1 [Compound 378, 4-(3,4-dihydro-2H-1-thia-5-azanaphth-7-ylamino)-2-[3-methoxy-4-(3-piperidinopropoxy)phenylamino]pyrimidine] | ≤ 500 |
| COc1cc(Nc2nccc(Nc3cnc4c(c3)CN(C)CC4)n2)ccc1OCCCN1CCCCC1 [Compound 379, 2-[3-methoxy-4-(3-piperidinopropoxy)phenylamino]-4-(6-methyl-5,6,7,8-tetrahydro-1,6-diaza-3-naphthylamino)pyrimidine] | 2000 to 10000 |
| COc1cc(Nc2nccc(Nc3cnc4[nH]ccc4c3)n2)ccc1OCCCN1CCCCC1 [Compound 381, 4-(1H-1,7-diazainden-5-ylamino)-2-[3-methoxy-4-(3-piperidinopropoxy)phenylamino]pyrimidine] | ≤ 500 |
